Source: patent publication US6875761B2 (Eisai Co., Ltd., priority 1997, dated 2005)
Counter-ions that a name gives are not always drawn.

| SMILES | melting point |
| --- | --- |
| CCN1CCN(c2nc(-c3ccnc(OCCOC)c3)cc3ccccc23)CC1 (as salt: hydrochloride) [Example 407, 1-(4-ethylpiperazin-1-yl)-3-[2-(2-methoxyethoxy)pyridin-4-yl]isoquinoline] | 139 to 140 °C |
| CCN1CCN(c2nc(C(=O)c3ccccc3OC)cc3ccccc23)CC1 (as salt: oxalate) [Example 111, 3-(2-Methoxyphenylcarbonyl)-1-(4-ethylpiperazin-1-yl)isoquinoline Oxalate] | 153 to 156 °C |
| CCN1CCN(c2nc(C(C)(O)c3ccc(OC)cc3)cc3ccccc23)CC1 (stereo not shown) (as salt: oxalate) | 179 to 181 °C |
| CCN1CCN(c2nc(-c3cnc(N4CCOCC4)s3)cc3ccccc23)CC1 (as salt: hydrochloride) [Example 173, 1-(1-ethylpiperazin-4-yl)-3-[2-(4-morpholinyl)-5-thiazolyl]isoquinoline dihydrochloride] | 265 °C (dec.) |
| CCCNC(=O)c1ccc(-c2cc3ccccc3c(N3CCN(CC)CC3)n2)cc1 (as salt: hydrochloride) [Example 63, 1-(4-Ethylpiperazin-1-Yl)-3-(4-N-Propylaminocarbonylphenyl)Isoquinoline Hydrochloride] | 149 to 150 °C |
| CCN1CCN(c2nc(-c3ccc(OCCCC#N)cc3)cc3ccccc23)CC1 (as salt: hydrochloride) [Example 53, 3-[4-(3-Cyanopropoxy)Phenyl]-1-(4-Ethylpiperazin-1-Yl)Isoquinoline Hydrochloride] | 144 to 146 °C |
| CCN1CCN(c2nc(-c3ccc(OCCOC)nc3)cc3ccccc23)CC1 (as salt: hydrochloride) [Example 126, 1-(1-Ethylpiperazin-4-yl)-3-[2-(2-Methoxyethoxy)Pyridin-5-yl]Isoquinoline] | 115 to 120 °C |
| CCN1CCN(c2nc(-c3ccc(OCCOC)cn3)cc3ccccc23)CC1 (as salt: hydrochloride) [Example 127, 1-(1-Ethylpiperazin-4-yl)-3-[5-(2-Methoxyethoxy)Pyridin-2-yl]Isoquinoline] | 116 to 119 °C |
| CCN1CCN(c2nc(CCc3ccc(OC)cc3)cc3ccccc23)CC1 (as salt: hydrochloride) [Example 106, 1-(1-Ethylpiperazin-4-yl)-3-(4-methoxyphenethyl)isoquinoline] | 224 to 227 °C |
| CCN1CCN(c2nc(-c3ccc(CCNS(=O)(=O)CC)cc3)cc3ccccc23)CC1 (as salt: hydrochloride) [Example 79, 3-(4-Ethylsulfonylaminoethylphenyl)-1-(4-Ethylpiperazin-1-Yl)Isoquinoline Hydrochloride] | 194 to 197 °C |
| CCNS(=O)(=O)c1ccc(-c2cc3ccccc3c(N3CCN(CCO)CC3)n2)cc1 (as salt: oxalate) | 172 to 174 °C |
| CCN1CCN(c2nc(-c3ccn(CCO)n3)cc3ccccc23)CC1 (as salt: hydrochloride) | 134 to 140 °C |
| CCN1CCN(c2nc(-c3ccc(OC)cc3)cc3ccc(C)cc23)CC1 (as salt: hydrochloride) | 243 to 246 °C |
| CCN1CCN(c2nc(C3CCCc4ccc(OC)cc43)cc3ccccc23)CC1 (stereo not shown) (as salt: oxalate) | 110 to 112 °C |
| CCN1CCN(c2nc(C(=O)c3ccc(OC)cc3)cc3ccccc23)CC1 (as salt: oxalate) [Example 112, 3-(4-Methoxyphenylcarbonyl)-1-(4-ethylpiperazin-1-yl)isoquinoline Oxalate] | 176 to 179 °C |

Results, then the compound that gave them:

| melting point | SMILES |
| --- | --- |
| 133 to 136 °C | CCN1CCN(c2nc(C#Cc3ccccc3)cc3ccccc23)CC1 (as salt: hydrochloride) [Example 177, 1-(1-Ethylpiperazin-4-Yl)-3-(Phenylethynyl)Isoquinoline Dihydrochloride] |
| 137 to 139 °C | CCN1CCN(c2nc(-c3ccc(OCC(C)(C)O)cc3)cc3ccsc23)CC1 (as salt: hydrochloride) [Example 260, 7-(1-Ethylpiperazin-4-yl)-5-[4-(2-hydroxy-2-methylpropoxy)phenyl]thieno[2,3-c]pyridine dihydrochloride] |
| 112 to 114 °C | CCN1CCN(c2nc(-c3ccc(OC[C@@H](C)O)cc3)cc3ccccc23)CC1 (as salt: hydrochloride) [Example 403, 1-(4-ethylpiperazin-1-yl)-3-[4-(2-hydroxypropoxy)phenyl]isoquinoline Dihydrochloride] |
| 256 to 258 °C | CCN1CCN(c2nc(-c3ccc(C4=CCOCC4)s3)cc3ccccc23)CC1 (as salt: hydrochloride) [Example 176, 3-[2-(5,6-Dihydro-2H-Pyran-4-Yl)Thiophen-5-Yl]-1-[4-Ethylpiperazin-1-Yl)Isoquinoline Hydrochloride] |
| 176 to 179 °C | CCN1CCN(c2nc(-c3ccc(C4=CCOCC4)cc3)cc3ccsc23)CC1 (as salt: hydrochloride) [Example 266, 5-[4-(5,6-dihydro-2H-pyran-4-yl)phenyl]-7-(4-ethylpiperazin-1-yl)thieno[2,3-c]pyridine Hydrochloride] |
| 245 to 247 °C | CCN1CCN(c2nc(/C=C/c3ccc(CS(C)(=O)=O)cc3)cc3ccccc23)CC1 (as salt: oxalate) [Example 203, 3-[(E)-2-(4-Methylsulfonylmethylphenyl)Ethenyl]-1-(4-Ethylpiperazin-1-Yl)Isoquinoline Oxalate] |
| 125 to 126 °C | CCN1CCN(c2nc(-c3ccc(CC(C)=O)cc3)cc3ccccc23)CC1 (as salt: hydrochloride) [Example 375, 1-(4-ethylpiperazin-1-yl)-3-[4-(2-oxopropyl)phenyl]isoquinoline dihydrochloride] |
| 116 to 118 °C | CCN1CCN(c2nc(-c3ccc(C(=O)N(C)CCO)cc3)cc3ccccc23)CC1 (as salt: oxalate) [Example 382, 1-(4-Ethylpiperazin-1-yl)-3-{4-[N-(2-Hydroxyethyl)-N-Methylcarbamoyl]Phenyl}Isoquinoline] |
| 157 to 158 °C | CCN1CCN(c2nc(-c3ccc(C(O)(c4nccs4)c4nccs4)cc3)cc3ccccc23)CC1 (as salt: hydrochloride) [Example 411, 1-(4-ethylpiperazin-1-yl)-3-{4-[bis(1,3-thiazol-2-yl)hydroxymethyl]phenyl}isoquinoline] |
| 188 °C | CCN1CCN(c2nc(-c3ccc(N4CCC(CO)CC4)nc3)cc3ccccc23)CC1 (as salt: hydrochloride) [Example 154, 1-(4-ethylpiperazin-1-yl)-3-[2-(4-hydroxymethylpiperidin-1-yl)pyridin-5-yl]isoquinoline trihydrochloride] |
| 148 to 150 °C | CN1CCN(c2nc(-c3ccc(OCCO)cc3)cc3sccc23)CC1 (as salt: hydrochloride) [Example 279, 4-(4-methylpiperazin-1-yl)-6-[4-(2-hydroxyethoxy)phenyl]thieno[3,2-c]pyridine hydrochloride] |
| 147 to 149 °C | CCNS(=O)(=O)c1ccc(-c2cc3ccccc3c(N3CCN(CC)CC3)n2)cc1 (as salt: hydrochloride) [Example 357, 1-(4-ethylpiperazin-1-yl)-3-[4-(N-ethylsulfamoyl)phenyl]isoquinoline dihydrochloride] |
| 220 to 225 °C | CCN1CCN(c2nc(-c3ccc(OC)cc3)cc3ccc(F)cc23)CC1 (as salt: hydrochloride) [Example 229, 1-(4-ethylpiperazin-1-yl)-7-fluoro-3-(4-methoxyphenyl)isoquinoline dihydrochloride] |
| 222 to 225 °C | CCN1CCN(c2nc(/C=C/c3ccccc3)cc3ccccc23)CC1 (as salt: hydrochloride) [Example 189, 1-(1-Ethylpiperazin-4-Yl)-3-(Trans-2-Phenylethenyl)Isoquinoline Dihydrochloride] |
| 248 to 250 °C | CCN1CCN(c2nc(/C=C/c3ccc(N4CCOCC4)cc3)cc3ccccc23)CC1 (as salt: oxalate) [Example 205, 3-{(E)-2-[4-(4-Morpholinyl)Phenyl]Ethenyl}-1-(4-Ethylpiperazin-1-Yl)Isoquinoline Oxalate] |
| 135 to 136 °C | COc1ccc(-c2cc3ccccc3c(NCCN3CCOCC3)n2)cc1 (as salt: hydrochloride) [Example 323, 1-[2-(4-morpholinyl)ethyl]amino-3-(4-methoxyphenyl)isoquinoline dihydrochloride] |
| 133 to 135 °C | CCCN1CCN(c2nc(-c3ccc(OCC(C)(C)O)cc3)cc3sccc23)CC1 (as salt: hydrochloride) [Example 289, 6-[4-(2-methyl-2-hydroxypropoxy)phenyl]-4-(4-propylpiperazin-1-yl)thieno[3,2-c]pyridine hydrochloride] |
| 112.5 to 114 °C | CCN1CCN(c2nc(-c3ccc(OCCOC)c(F)c3)cc3ccccc23)CC1 (as salt: hydrochloride) [Example 367, 1-(4-ethylpiperazin-1-yl)-3-(3-fluoro-4-methoxyethoxyphenyl)isoquinoline dihydrochloride] |
| 128 to 130 °C | CCCN1CCN(c2nc(-c3ccc(OCCO)cc3)cc3sccc23)CC1 (as salt: hydrochloride) [Example 293, 4-(4-propylpiperazin-1-yl)-6-[4-(2-hydroxyethoxy)phenyl]thieno[3,2-c]pyridine] |
| 129 to 130 °C | CCN1CCN(c2nc(-c3ccc(C4CCCO4)cc3)cc3ccccc23)CC1 (stereo not shown) (as salt: hydrochloride) [Example 396, 1-(4-Ethylpiperazin-1-yl)-3-[4-(Tetrahydrofuran-2-yl)Phenyl]Isoquinoline Dihydrochloride] |
| 126 to 130 °C | CCN1CCN(c2nc(-c3cccc(OCCO)c3)cc3sccc23)CC1 (as salt: hydrochloride) [Example 284, 4-(1-ethylpiperazin-4-yl)-6-[3-(2-hydroxyethoxy)phenyl]thieno-[3,2-c]pyridine dihydrochloride] |
| 161 to 163 °C | CCN1CCN(c2nc(C#CC(=O)c3ccccc3)cc3ccccc23)CC1 (as salt: oxalate) [Example 184, 1-(1-Ethylpiperazin-4-Yl)-3-Benzoylethynylisoquinoline Oxalate] |
